Experimental data from US10138275B2, “Crystalline powder of cyclic peptide compound, preparation method for same, and uses thereof” (SHANGHAI TECHWELL BIOPHARMACEUTICAL CO., LTD, priority 2014, dated 2018).
Starred links: 1 amine or outer side, 2 acyl side, 3 side chain; linkers in the order of their positions; H or OH if unused. Positions of bridges follow the written chain, without caps; N, C: chain ends. Non-standard residues stand in square brackets, D forms with d. Residues, ends and D or L forms follow the SMILES beside them. *: point of attachment. hTyr(3S-OH,4S-OH,3'-OSO3H) = N[C@H](C(=O)O)[C@H](O)[C@@H](O)c1ccc(O)c(OS(=O)(=O)O)c1; Orn(4R-OH,5R-OH) = O=C([C@H](C[C@@H](O)[C@@H](O)N[*:3])N[*:1])[*:2]; Pro(3S-OH,4S-Me) = C[C@H]1CN[C@H](C(=O)O)[C@H]1O; X1 = CCCCCOc1ccc(-c2cc(-c3ccc(C(=O)*)cc3)no2)cc1; Gln(3R-OH) = NC(=O)C[C@@H](O)[C@H](N)C(=O)O; Hyp = O=C(O)[C@@H]1C[C@@H](O)CN1

Legend:
[1] = Particle size distribution (d10, d50) by Malvern particle size analyzer / laser diffraction; assay type: physicochemical
Description: […] Wherein, d10 and d50 are means known for indicating the particle size distribution. d50 refers to a value of particle size, and the size of 50 vol/% of particles is smaller than said value. D10 refers to a value of particle size, and the size of 10 vol/% of particles is smaller than said value. The preferred method for determining d10 and d50 is laser diffraction, d50 of the crystalline powder of the compound of formula I according to the present invention is determined as 10-100 um, and d10 is determined as 1-9 um. Preferably, d50 of the crystalline powder is 20-50 um, and d10 thereof is 1-5 um. Before solid-liquid separation, d50 of the crystalline powder of the compound of formula I is 10-100 um, and d10 thereof is 1-9 um. Preferably, d50 of the crystalline powder is 20-50 um, and d10 thereof is 3-6 um.

[2] = Bulk density of powder by cylinder measurement; assay type: physicochemical; details: after drying
Description: “Bulk density of powder” is a measurement standard for the relative importance of the interaction between microparticles by comparing the bulk density and tapped density of the powder. Methods for measuring bulk density of powder are known in the art; for example, it can be determined by cylinder measurement, volumetric measurement, and container measurement. Bulk density of the crystalline powder of the compound of formula I according to the present invention is determined as less than 0.7 g/mL, preferably less than 0.6 g/mL, most preferably less than 0.5 g/mL, by cylinder measurement.

[3] = Ratio of dry weight to wet weight (Dry/Wet) of filtered solids; assay type: physicochemical; details: wet solids weighed after filtration, before drying
Text: As used herein, the term “Dry/Wet” and “ratio of dry weight to wet weight” can be used interchangeably, both of which refer to the ratio of the weight of a compound without solvent(s) to the weight of the compound with solvent(s). In the present invention, wet weight of crystals is obtained by filtering the crystallized solids until no noticeable droplet outflows and weighing the solids.

[4] = Filtration through a Buchner funnel until no noticeable droplet outflowed; assay type: physicochemical
Text: In this example, the precipitated solids from Examples 2-10 and Comparative Examples 1-3 were filtered through a Buchner funnel until no noticeable droplet outflowed, and the filtration processes were compared.

[5] = Vacuum-drying at 25° C. with a water system until no organic solvent detected by GC; purity by HPLC; assay type: physicochemical
Text: High performance liquid chromatography (HPLC) is a common method for determining the purity of a compound, wherein a liquid is used as the mobile phase and a high-pressure transfusion system is used for pumping the mobile phase, such as single solvents with different polarities, a mixture of solvents at different proportions, or buffers, into a column packed with a stationary phase. Each component is separated in the column, and then enters into a detector for detection, thereby analyzing a sample. In the present invention, HPLC is used for determining the purity of the compound of formula I and studying the stability of a sample. Conditions of the HPLC method are listed as follows:
Analysis Column: YMC-ODS 250×4.6 mm, 5 μm;
Mobile phase: acetonitrile:phosphate buffer (pH 3.0)=45:70;
Column temperature: 35° C.;
Diluent: aqueous phosphate buffer;
Detection wavelength: 210 nm;
Gas chromatography (GC) used to separate and measure trace impurities in a compound is an accurate, qualitative and quantitative method of analysis. In the present invention, the content of organic solvents in the crystalline powder of the compound of formula I obtained in the present invention is measured by gas chromatography (GC).
5 g of solids were prepared according to the methods of Examples 2-10 and Comparative Examples 1-3 respectively, placed at 25° C., and vacuum-dried together with a water system until no organic solvent was detected through GC. The time for drying was compared, and the purity of the sample was analyzed.

[6] = Exposure of dried B82 crystal to the environment (moisture uptake, stability); assay type: physicochemical
Text: Before drying of the crystals, the content of solvent in the compound of formula I (Dry/Wet) was about 0.25, and a large amount of organic solvent was trapped in the crystal. To render the content of solvent in compliance with the requirements for active pharmaceutical ingredients (API), the drying temperature or the drying time has to be increased during the drying process. Such drying process, however, will increase the degradation product of the compound of formula I, seriously affecting the quality and stability of API.

[7] = Ohigashi et al. 2006, cited from earlier work

Row | SMILES | d50 of the obtained crystals ([1]; B82-type crystal prepared per Example 1 of WO03/018615) | d10, particle size of the crystalline powder ([1]; after drying) | d50, particle size of the crystalline powder ([1]; after drying) | Bulk density [2] | Bulk density ([2]; listed as B82-type crystals) | ratio of dry weight to wet weight (Dry/Wet) [3] | ratio of dry weight to wet weight (Dry/Wet) ([3]; listed as B82-type crystals) | Time for filtration [4] | time Needed (for drying) ([5]; 25° C., vacuum-drying with a water system until no organic solvent detected by GC) | Purity before drying ([5]; HPLC, 5 g of solids) | Purity after drying ([5]; HPLC, vacuum-dried at 25° C. with a water system until no organic solvent detected by GC) | moisture absorption when exposed to the environment [6] | stability when exposed to the environment [6] | content of solvent in the precipitate ([7]; amorphous precipitate before drying) | Dry/Wet of the precipitate before drying ([7]; amorphous precipitate from acetone/ethyl acetate)
1 | CCCCCOc1ccc(-c2cc(-c3ccc(C(=O)N[C@H]4C[C@@H](O)[C@@H](O)NC(=O)[C@@H]5[C@@H](O)[C@@H](C)CN5C(=O)[C@H]([C@H](O)CC(N)=O)NC(=O)[C@H]([C@H](O)[C@@H](O)c5ccc(O)c(OS(=O)(=O)[O-])c5)NC(=O)[C@@H]5C[C@@H](O)CN5C(=O)[C@H]([C@@H](C)O)NC4=O)cc3)no2)cc1.[Na+] [Comparative Example 1, reference compound] (X1-[Orn(4R-OH,5R-OH)]T[Hyp][hTyr(3S-OH,4S-OH,3'-OSO3H)][Gln(3R-OH)][Pro(3S-OH,4S-Me)]; lactam 1-C) | 0.2-1.0 um | 0.25 um | 0.7 um | 0.85 g/mL | about 0.8 g/mL | 0.25 | about 0.25 | 90 min | 25 h | 99.26% | 97.96% | inclined to absorb moisture | poor stability | – | –
2 | CCCCCOc1ccc(-c2cc(-c3ccc(C(=O)N[C@H]4C[C@@H](O)[C@@H](O)NC(=O)[C@@H]5[C@@H](O)[C@@H](C)CN5C(=O)[C@H]([C@H](O)CC(N)=O)NC(=O)[C@H]([C@H](O)[C@@H](O)c5ccc(O)c(OS(=O)(=O)[O-])c5)NC(=O)[C@@H]5C[C@@H](O)CN5C(=O)[C@H]([C@@H](C)O)NC4=O)cc3)no2)cc1.[Na+] [compound of formula I, 5-[(1S,2S)-2-[(3S,6S,9S,11R,15S,18S,20R,21R,24S,25S,26S)-3-[(R)-2-carbamoyl-1-hydroxyethyl]-11,20,21,25-tetrahydroxy-15-[(R)-1-hydroxyethyl]-26-methyl-2,5,8,14,17,23-hexaoxo-18-[4-[5-(4-pentoxyphenyl)isoxazol-3-yl]benzoylamino]-1,4,7,13,16,22-hexaazatricyclo[22.3.0.0.0^9,13]heptacosan-6-yl]-1,2-dihydroxyethyl]-2-hydroxy phenyl sulfate] (X1-[Orn(4R-OH,5R-OH)]T[Hyp][hTyr(3S-OH,4S-OH,3'-OSO3H)][Gln(3R-OH)][Pro(3S-OH,4S-Me)]; lactam 1-C) | – | – | – | – | – | – | – | – | – | – | – | – | – | about 75% | 0.25
